Assay results: US12371404B2, “Fused bicyclic alkylene linked imidodicarbonimidic diamides, methods for synthesis, and uses in therapy” (NovaTarg, Inc., priority 2016, dated 2025)
Structures can show the parent of a compound that is named as a salt.

How the values were obtained:
[1] = target: T1, human MATE1 (Homo sapiens, UniProt Q96FL8); test: Oxygen consumption rate (OCR) assay, HEK293 cells transfected with MATE1; conditions: for inhibition at 1000 µM: HEK293, read-out: Oxygen Consumption Rate (OCR), MATE 1, % Inhibition at 1000 μM test concentration
T1 sequence (Q96FL8 1-570): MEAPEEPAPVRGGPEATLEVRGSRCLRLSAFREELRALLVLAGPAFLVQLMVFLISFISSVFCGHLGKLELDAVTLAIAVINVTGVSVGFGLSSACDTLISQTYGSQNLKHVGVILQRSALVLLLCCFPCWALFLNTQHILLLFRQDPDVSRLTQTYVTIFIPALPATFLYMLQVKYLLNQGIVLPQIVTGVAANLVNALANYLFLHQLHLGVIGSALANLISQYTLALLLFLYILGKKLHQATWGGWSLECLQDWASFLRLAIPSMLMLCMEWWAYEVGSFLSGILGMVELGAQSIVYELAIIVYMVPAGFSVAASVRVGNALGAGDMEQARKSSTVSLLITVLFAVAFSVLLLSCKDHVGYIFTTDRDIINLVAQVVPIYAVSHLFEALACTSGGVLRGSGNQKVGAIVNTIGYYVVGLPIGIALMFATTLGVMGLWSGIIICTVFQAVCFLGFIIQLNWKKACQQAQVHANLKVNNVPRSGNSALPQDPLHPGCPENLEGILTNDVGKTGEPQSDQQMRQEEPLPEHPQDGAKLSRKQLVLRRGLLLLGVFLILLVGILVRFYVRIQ
From the text: The compounds of the present invention are similarly tested in an oxygen consumption rate (OCR) assay to evaluate the functional activity of test compounds in cells.
(§1) In brief, the assay uses HEK293 cells stably transfected with the human OCT1, OCT2, OCT3, PMAT, or MATE1 transporters to determine a compound's relative transporter selectivity and its effect on the rate of oxygen consumption relative to control (Neo) cells. The MitoXpress Xtra oxygen-sensitive fluorophore is used to monitor oxygen consumption rates in the presence and absence of compound treatments. The analogs were tested at eight (8) different concentrations in triplicate to determine a relative IC50 value.
(§2) A summary description of the protocol is as follows:
(§3) Cells were incubated overnight to allow attachment. The outer columns (1 and 12) are not seeded with cells, as controls. The next day, plating medium was removed and replaced with 150 μL of assay medium (DMEM/F12 (PRF), 5% FBS, antibiotics) containing compound dilutions. A 3-fold serial dilution was prepared in the assay medium and transferred to the empty wells. The outer columns and column 11 received 150 μL of assay medium only. 10 μL of MitoXpress Xtra reagent was added to each test well, and 100 μL of pre-warmed mineral oil was overlayed in each well to create a seal. Dual read time-resolved fluorescence (BMG FluoStar Galaxy reader) was measured over 2 hours with measurements taken every 2 minutes. Excitation is 340 nm, Emission is 650 nm. For lifetime analysis, two measurements per well were taken: 1) delay of 30 μs, with a window of 30 μs; and 2) delay of 70 μs with a window of 30 μs. Background TRF values from A1-D1 were subtracted from all readings. A ratiometric analysis was performed to determine changes in the Lifetime fluorescence signal:Lifetime (μs) [T]=(D2−D1)/ln(W1/W2), where D is delay; W is fluorescence window value at each time point. Lifetime slopes were calculated using each Lifetime measurement over time. IC50 values were determined by plotting lifetime slope values vs. compound concentration.

[2] = test system: control (Neo) cells; test: Oxygen consumption rate (OCR) assay, control (Neo) HEK293 cells; format: cell-based; conditions: Homo sapiens; control (Neo) HEK293 cells; MitoXpress Xtra, 2 hours; read-out: Oxygen Consumption Rate (OCR) IC50, Neo
From the text: (§4) Diabetologia 2011, 54 (12): 3101-3110, each incorporated by reference with regard to such testing. The compounds of the present invention are similarly tested in an oxygen consumption rate (OCR) assay to evaluate the functional activity of test compounds in cells.
as §1, §2
as §3, with “HEK293 cells transformed with human organic cation transporters were plated in collagen coated, 96-well black-walled microclear plates (Greiner-Bio 1, #655956) at 60,000 cells per well in growth medium (DMEM (LG), 10% FBS, 400 μg/ml G418). Cells” for “Cells”

[3] = target: T2, human PMAT (Homo sapiens, UniProt Q7RTT9); test: Oxygen consumption rate (OCR) assay, HEK293 cells transfected with PMAT; format: cell-based; conditions: HEK293 cells with human PMAT; 10 μM
T2 construct: expressed in transfected cells; host or cells: HEK293
T2 sequence (Q7RTT9 1-530): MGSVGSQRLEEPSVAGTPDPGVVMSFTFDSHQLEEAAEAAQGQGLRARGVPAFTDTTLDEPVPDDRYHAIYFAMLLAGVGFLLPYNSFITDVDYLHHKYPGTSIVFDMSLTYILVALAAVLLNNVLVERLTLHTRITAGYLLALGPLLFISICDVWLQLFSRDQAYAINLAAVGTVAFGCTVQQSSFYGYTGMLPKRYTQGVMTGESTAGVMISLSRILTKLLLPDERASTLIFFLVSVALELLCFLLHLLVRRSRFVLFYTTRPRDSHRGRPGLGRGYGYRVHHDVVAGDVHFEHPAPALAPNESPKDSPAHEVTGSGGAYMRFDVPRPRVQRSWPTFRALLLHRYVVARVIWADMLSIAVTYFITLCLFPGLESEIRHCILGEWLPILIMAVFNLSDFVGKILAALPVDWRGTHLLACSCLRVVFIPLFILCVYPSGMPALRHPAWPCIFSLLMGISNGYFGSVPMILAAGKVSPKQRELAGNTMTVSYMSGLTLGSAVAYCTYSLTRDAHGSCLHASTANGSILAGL
From the text: as §4, §1, §2
as §3, with “HEK293 cells transformed with human organic cation transporters were plated in collagen coated, 96-well black-walled microclear plates (Greiner-Bio 1, #655956) at 60,000 cells per well in growth medium (DMEM (LG), 10% FBS, 400 μg/ml G418). Cells” for “Cells”

SMILES | IC50 [1] [mM] | IC50 [2] [mM] | inhibition at 10 µM [3] [%] | inhibition at 1000 µM [1] [%]
Cn1cc(CCNC(=N)NC(=N)N)c2cc(F)ccc21 [Ex 4, 1-[2-(5-fluoro-1-methyl-1H-indol-3-yl)ethyl]imidodicarbonimide diamide] | 1.57 | 0.678 | 41 | –
CC(Cc1c[nH]c2ccc(F)cc12)NC(=N)NC(=N)N (stereo not shown) [Ex 5, 1-[1-(5-fluoro-1H-indol-3-yl)propan-2-yl]imidodicarbonimide diamide] | – | 1.88 | 12 | 65
CC(Cc1cn(C)c2ccc(F)cc12)NC(=N)NC(=N)N (stereo not shown) [Ex 6, 1-[1-(5-fluoro-1-methyl-1H-indol-3-yl)propan-2-yl]imidodicarbonimide Diamide] | – | > 10 | 8 | 18
N=C(N)NC(=N)NCCCc1c[nH]c2ccccc12 [Ex 7, hydrochloride] | – | > 10 | 7 | 36
CC(C)(CNC(=N)NC(=N)N)c1c[nH]c2ccccc12 [Ex 8] | – | > 1 | 20 | 31
N=C(N)NC(=N)NCCc1c[nH]c2ccc(Cl)cc12 [Ex 9, 1-[2-(5-chloro-1H-indol-3-yl)ethyl]imidodicarbonimide diamide, trifluoroacetic acid salt] | 0.171 | 0.07 | 53 | –
Cc1ccc2[nH]cc(CCNC(=N)NC(=N)N)c2c1 [Ex 10, 1-[2-(5-methyl-1H-indol-3-yl)ethyl]imidodicarbonimide diamide trifluoroacetic acid salt] | 2.19 | 0.439 | 43 | –
Cc1c(CCNC(=N)NC(=N)N)c2ccccc2n1C [Ex 16, 1-[2-(1,2-dimethyl-1H-indol-3-yl)ethyl]imidodicarbonimide diamide] | – | 1.21 | 36 | 10
N=C(N)NC(=N)NCCc1c[nH]c2ccccc12 [Ex 17, 1-[2-(1H-indol-3-yl)ethyl]imidodicarbonimide diamide hydrochloride] | 4.84 | > 5 | 54 | –
N=C(N)NC(=N)NCCc1c[nH]c2ccc([N+](=O)[O-])cc12 [Ex 18, 1-[2-(5-nitro-1H-indol-3-yl)ethyl]imidodicarbonimide diamide, trifluoroacetic acid salt] | – | 1.41 | 27 | -26
N=C(N)NC(=N)NCCc1c[nH]c2cccnc12 [Ex 21, 1-(2-(1H-pyrrolo[3,2-b]pyridin-3-yl)ethyl)imidodicarbonimide diamide acetate] | 1.54 | > 3 | 27 | –
N=C(N)NC(=N)NCCc1c[nH]c2ccncc12 [Ex 22, 1-(2-(1H-pyrrolo[3,2-c]pyridin-3-yl)ethyl)imidodicarbonimide diamide hydrochloride] | 2.98 | 3.24 | -7 | –
CN(C)C(=N)NC(=N)NCCc1c[nH]c2cc(F)ccc12 [Ex 23, 3-(2-(6-fluoro-1H-indol-3-yl)ethyl)-1,1-dimethyl imidodicarbonimide diamide hydrochloride] | > 10 | > 3 | 4 | –
Cc1[nH]c2cc(F)ccc2c1CCNC(=N)NC(=N)N [Ex 31, 1-[2-(6-fluoro-2-methyl-1H-indol-3-yl)ethyl]imidodicarbonimide diamide, trifluoroacetic acid salt] | 13.4 | 4.87 | 35 | –
N=C(N)NC(=N)NCCc1c[nH]c2cc(F)c(Cl)cc12 [Ex 58, 1-[2-(5-chloro-6-fluoro-1H-indol-3-yl)ethyl]imidodicarbonimide diamide, trifluoroacetic acid salt] | 0.035 | 0.191 | – | –
Cc1cccc2[nH]cc(CCNC(=N)NC(=N)N)c12 [Ex 60, 1-[2-(4-methyl-1H-indol-3-yl)ethyl]imidodicarbonimide diamide, trifluoroacetic acid salt] | 0.636 | 1.64 | – | –
N=C(N)NC(=N)NCCc1c[nH]c2cc(F)cc(F)c12 [Ex 61, 1-[2-(4,6-difluoro-1H-indol-3-yl)ethyl]imidodicarbonimide diamide, trifluoroacetic acid salt] | 0.062 | 0.333 | – | –
CC(CNC(=N)NC(=N)N)c1c[nH]c2cc(F)ccc12 (stereo not shown) [Ex 62, 1-[2-(6-fluoro-1H-indol-3-yl)propyl]imidodicarbonimide diamide, trifluoroacetic acid salt] | 3.43 | 3.43 | – | –
CC(C)(CNC(=N)NC(=N)N)c1c[nH]c2cc(F)ccc12 [Ex 63, 1-[2-(6-fluoro-1H-indol-3-yl)-2-methylpropyl]imidodicarbonimide diamide, trifluoroacetic acid salt] | 3.79 | 1.75 | – | –
N=C(N)NC(=N)NCCc1c[nH]c2c(F)cc(Cl)cc12 [Ex 64, 1-[2-(5-chloro-7-fluoro-1H-indol-3-yl)ethyl]imidodicarbonimide diamide, trifluoroacetic acid salt] | 0.37 | 0.282 | – | –
CN(CCc1c[nH]c2cc(F)ccc12)C(=N)NC(=N)N [Ex 65, 1-methyl-1-[2-(6-fluoro-1H-indol-3-yl)ethyl]imidodicarbonimide diamide, trifluoroacetic acid salt] | 0.354 | 8.41 | – | –
CN(C)C(=N)NC(=N)NCCc1c[nH]c2nc(F)ccc12 [Ex. 54, 3-(2-(6-fluoro-1H-pyrrolo[2,3-b]pyridin-3-yl)ethyl)-1,1-dimethyl imidodicarbonimide diamide trifluoroacetic acid salt] | 4.95 | 4.6 | – | –
